{"source": "patent US10995088B2", "about": "“Methylamine derivatives as lysysl oxidase inhibitors for the treatment of cancer” (The Institute of Cancer Research: Royal Cancer Hospital, priority 2016, dated 2021)", "key": {"in vivo [1]": {"assay": "in vivo", "settings": "rat, po, 20 mg/kg"}, "in vivo [2]": {"assay": "in vivo", "settings": "female, mouse, po, 50 mg/kg"}, "DAO": {"molecular_target": "DAO (Sus scrofa, UniProt Q9TRC7)", "sequence (Q9TRC7 25-755 limits assumed)": "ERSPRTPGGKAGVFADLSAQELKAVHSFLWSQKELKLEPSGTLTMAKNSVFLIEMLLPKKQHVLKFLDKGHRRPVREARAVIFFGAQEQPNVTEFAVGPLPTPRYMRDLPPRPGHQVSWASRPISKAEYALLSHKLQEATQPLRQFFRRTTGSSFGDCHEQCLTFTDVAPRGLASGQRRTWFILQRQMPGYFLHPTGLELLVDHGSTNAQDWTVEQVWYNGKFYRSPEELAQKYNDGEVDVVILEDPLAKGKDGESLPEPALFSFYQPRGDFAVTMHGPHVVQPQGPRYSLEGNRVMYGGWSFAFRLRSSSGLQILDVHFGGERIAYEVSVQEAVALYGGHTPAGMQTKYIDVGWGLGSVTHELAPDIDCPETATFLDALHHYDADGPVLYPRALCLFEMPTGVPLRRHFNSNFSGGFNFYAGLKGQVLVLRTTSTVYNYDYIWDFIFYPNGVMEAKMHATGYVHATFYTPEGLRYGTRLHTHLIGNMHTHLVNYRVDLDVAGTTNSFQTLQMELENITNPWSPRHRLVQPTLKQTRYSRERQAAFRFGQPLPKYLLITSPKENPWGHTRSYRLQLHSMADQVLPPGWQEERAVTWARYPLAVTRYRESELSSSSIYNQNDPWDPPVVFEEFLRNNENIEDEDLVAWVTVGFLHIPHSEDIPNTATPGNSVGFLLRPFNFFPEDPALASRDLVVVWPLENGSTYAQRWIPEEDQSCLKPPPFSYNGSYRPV", "settings": "read-out: DAO IC50"}, "MAO-A": {"molecular_target": "MAO-A (Homo sapiens (Human), UniProt P21397)", "sequence (P21397 whole entry)": "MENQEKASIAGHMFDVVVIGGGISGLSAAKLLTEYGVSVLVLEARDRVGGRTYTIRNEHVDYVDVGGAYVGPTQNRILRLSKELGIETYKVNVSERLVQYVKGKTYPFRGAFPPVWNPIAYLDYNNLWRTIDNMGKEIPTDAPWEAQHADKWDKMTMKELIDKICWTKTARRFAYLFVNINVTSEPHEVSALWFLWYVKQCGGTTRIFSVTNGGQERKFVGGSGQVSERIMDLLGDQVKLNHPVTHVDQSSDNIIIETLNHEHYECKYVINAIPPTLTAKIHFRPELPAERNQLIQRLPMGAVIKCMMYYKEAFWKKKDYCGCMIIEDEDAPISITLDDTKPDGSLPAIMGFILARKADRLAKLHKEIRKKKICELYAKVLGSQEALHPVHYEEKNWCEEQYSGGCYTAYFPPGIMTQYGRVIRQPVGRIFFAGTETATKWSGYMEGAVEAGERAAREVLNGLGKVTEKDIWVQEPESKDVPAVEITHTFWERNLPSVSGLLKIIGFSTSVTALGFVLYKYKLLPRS", "assay": "Monoamine oxidase A (MAO-A) selectivity assay (MAO-Glo)", "format": "biochemical"}, "[3]": {"test_system": "TGF beta signalling (pSMAD2)", "format": "cell-based", "settings": "leading to MATN2 reduction"}, "MAO-B": {"molecular_target": "MAO-B (Homo sapiens (Human), UniProt P27338)", "sequence (P27338 whole entry)": "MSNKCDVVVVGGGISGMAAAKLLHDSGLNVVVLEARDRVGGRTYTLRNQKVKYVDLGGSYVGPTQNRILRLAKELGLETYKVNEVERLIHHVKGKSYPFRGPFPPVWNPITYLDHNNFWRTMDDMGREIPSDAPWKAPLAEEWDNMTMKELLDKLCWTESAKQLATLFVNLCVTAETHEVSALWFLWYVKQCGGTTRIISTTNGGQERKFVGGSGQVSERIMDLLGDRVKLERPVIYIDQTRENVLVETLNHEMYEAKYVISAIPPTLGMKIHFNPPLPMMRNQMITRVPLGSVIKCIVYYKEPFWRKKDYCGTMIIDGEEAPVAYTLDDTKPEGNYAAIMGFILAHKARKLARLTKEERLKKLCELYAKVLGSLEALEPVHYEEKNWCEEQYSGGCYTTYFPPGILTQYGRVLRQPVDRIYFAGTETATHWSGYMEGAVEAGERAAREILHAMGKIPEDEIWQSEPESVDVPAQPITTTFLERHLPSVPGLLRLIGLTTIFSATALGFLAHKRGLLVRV", "assay": "Monoamine oxidase B (MAO-B) selectivity assay (MAO-Glo)", "format": "biochemical"}, "[4]": {"test_system": "MATN2 in MDA-MB-231 cells", "assay": "MATN2 level in MDA-MB-231 cells (Western blotting)", "format": "cell-based, human", "settings": "at a much higher concentration than 20 μM", "procedure": "Proteins were extracted from cultured cells using cell lysis buffer (Cell Signalling Technology) with the addition of protease and phosphatase inhibitor cocktails (Pierce). Protein concentrations were measured using Pierce 660 nm protein assay reagent and SpectaMax M5 plate reader. […] Separated proteins were transferred to nitrocellulose membranes using a Trans-Blot turbo transfer system (Bio-Rad). Following blocking with Odyssey blocking buffer (Li-COR), membranes were incubated with two primary antibodies of different species at 4° C. over night. Corresponding fluorescence secondary antibodies (Li-COR) of different excitation and emission wavelengths were used to visualize the protein of interest on an Odyssey CLx infrared imaging system (Li-COR). Quantification of band fluorescent intensity was achieved using Li-COR ImageStudio. The following primary antibodies were used, anti-LOX (Sigma), anti-human MATN2 (R&D), anti-EGFR and anti-pY1068EGFR (Cell Signalling Technology), and anti-GAPDH (Millipore).\nLOX inhibitors show significant reduction of MATN2 in MDA-MB-231 cells treated at 20 μM overnight."}}, "note": "Structures can show the parent of a compound that is named as a salt.", "data": [{"smiles": "NCc1ncc(S(=O)(=O)c2cc(C(=O)O)cc(-c3ccccc3)c2)s1", "note": "[Example 126, 5-((2-(Aminomethyl)thiazol-5-yl)sulfonyl)-[1,1′-biphenyl]-3-carboxylic acid ditrifluoroacetate]", "values": [{"measurement": "bioavailability", "setting": "in vivo [1]", "result": 33, "unit": "%"}, {"measurement": "bioavailability", "setting": "in vivo [2]", "result": 67, "unit": "%"}]}, {"smiles": "Cn1cc(-c2cc(F)cc(S(=O)(=O)c3cnc(CN)s3)c2)cn1", "note": "[Example 131, (5-((3-Fluoro-5-(1-methyl-1H-pyrazol-4-yl)phenyl)sulfonyl)thiazol-2-yl)methanamine trihydrochloride]", "values": [{"measurement": "IC50", "setting": "DAO", "result": "> 100", "unit": "µM"}]}, {"smiles": "Cn1cc(-c2cc(C(=O)O)cc(S(=O)(=O)c3cnc(CN)s3)c2)cn1", "note": "[Example 150, 3-((2-(Aminomethyl)thiazol-5-yl)sulfonyl)-5-(1-methyl-1H-pyrazol-4-yl)benzoic acid tihydrochloride]", "values": [{"measurement": "IC50", "setting": "DAO", "result": "> 100", "unit": "µM"}]}, {"smiles": "Cc1ccc(-c2cc(S(=O)(=O)c3ccc(CN)s3)ccc2S(C)(=O)=O)cc1", "note": "[Example 82, (5-((4′-Methyl-6-(methylsulfonyl)-[1,1′-biphenyl]-3-yl)sulfonyl)thiophen-2-yl)methanamine hydrochloride]", "values": [{"measurement": "IC50", "setting": "DAO", "result": "> 100", "unit": "µM"}, {"measurement": "bioavailability", "setting": "in vivo [2]", "result": 74, "unit": "%"}]}, {"smiles": "N#CCCN", "note": "[BAPN, beta-aminopropionitrile]", "values": [{"measurement": "MAO-A inhibition", "setting": "MAO-A", "result": "neither inhibits"}, {"measurement": "TGF beta signalling as indicated by pSMAD2", "setting": "[3]", "result": "increased"}, {"measurement": "MAO-B inhibition", "setting": "MAO-B", "result": "neither inhibits"}, {"measurement": "reduction of MATN2", "setting": "[4]", "result": "The same effect was seen"}]}, {"smiles": "CCc1cc(-c2ccc[n+]([O-])c2)cc(S(=O)(=O)c2cnc(CN)s2)c1", "note": "[Example 113, 3-(3-((2-(Aminomethyl)thiazol-5-yl)sulfonyl)-5-ethylphenyl)pyridine 1-oxide hydrochloride]", "values": [{"measurement": "IC50", "setting": "DAO", "result": "> 100", "unit": "µM"}]}, {"smiles": "Cn1cc(-c2cccc(S(=O)(=O)c3cnc(CN)s3)c2)cn1", "note": "[Example 116, (5-((3-(1-Methyl-1H-pyrazol-4-yl)phenyl)sulfonyl)thiazol-2-yl)methanamine]", "values": [{"measurement": "IC50", "setting": "DAO", "result": "> 100", "unit": "µM"}]}, {"smiles": "CN(C)C(=O)c1cc(-c2ccccc2)cc(S(=O)(=O)c2cnc(CN)s2)c1", "note": "[Example 125, 5-((2-(Aminomethyl)thiazol-5-yl)sulfonyl)-N,N-dimethyl-[1,1′-biphenyl]-3-carboxamide dihydrochloride]", "values": [{"measurement": "IC50", "setting": "DAO", "result": "> 100", "unit": "µM"}]}]}
